Assays:
CK-1δ [1] = molecular target: T1, CK-1δ (Homo sapiens, UniProt P48730); experiment: Cellular target engagement (NanoBRET) competition assay; format: cell-based; parameters: expressed in transfected cells; host or cells: 293T-HEK cells; conditions: NanoLuc-tagged kinase in 293T-HEK cells, tracer displacement; read-out: NanoBRET CK-1d IC50
Procedure: The cell based CK-1δ target engagement assay is a NanoBRET competition assay that directly quantifies compound binding to full length kinases in live cells (Robers M et al. Nat. Comm. No 6 (2015)). The assay utilizes a cell permeable fluorescent tracer that reversibly binds to a NanoLuc-tagged kinase expressed in 293T-HEK cells. Intracellular target engagement of an unmodified test compound was measured by competitive displacement of the tracer resulting in a loss of bioluminescence energy transfer (BRET) that was quantified on a microplate-based luminometer.
(§1) The IC50 ranges are as follows: for NanoBRET IC50 (nM), A denotes <400 nM; B denotes 400 nM≤KD<800 nM; C denotes KD≥800 nM. For the biochemical kinase assay IC50 (nM), A denotes <50 nM; B denotes 50 nM≤IC50<100 nM; C denotes ≥100 nM.

CK-1δ [2] = molecular target: T1, CK-1δ; experiment: Biochemical kinase assay (HotSpot radioisotope filter binding, Reaction Biology); parameters: purchased Reaction Biology; conditions: read-out: Biochemical Kinase Assay CK-1d IC50
Procedure: Biochemical inhibition of CK-1δ and kinome selectivity was assessed using a HotSpot radioisotope filter binding assay (Reaction Biology). In the HotSpot assay, compounds were incubated with the kinase, substrate, cofactors, and radioisotope-labeled ATP. The reaction mixtures are then spotted onto filter papers, which bind the radioisotope-labeled catalytic product that can be quantified.
as §1

T1 sequence (P48730 whole entry): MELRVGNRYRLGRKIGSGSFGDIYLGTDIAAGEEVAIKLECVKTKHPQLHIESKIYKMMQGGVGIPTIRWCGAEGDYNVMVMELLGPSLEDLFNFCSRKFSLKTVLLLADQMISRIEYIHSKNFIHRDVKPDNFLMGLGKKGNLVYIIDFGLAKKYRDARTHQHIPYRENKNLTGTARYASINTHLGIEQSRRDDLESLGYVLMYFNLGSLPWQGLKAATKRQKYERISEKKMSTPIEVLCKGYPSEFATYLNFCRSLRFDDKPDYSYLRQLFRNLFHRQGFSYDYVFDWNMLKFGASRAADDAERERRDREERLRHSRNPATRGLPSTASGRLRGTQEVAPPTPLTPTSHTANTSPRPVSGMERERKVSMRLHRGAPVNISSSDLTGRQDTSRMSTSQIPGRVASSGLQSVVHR

Structure (SMILES) | IC50 (CK-1δ [1]) [µM] | IC50 (CK-1δ [2]) [µM]
CC(C)Cc1nc(-c2ccncc2)c(-c2ccc(Cl)cc2)c(=O)[nH]1 [Compound 2, 5-(4-chlorophenyl)-2-isobutyl-6-(pyridin-4-yl)pyrimidin-4(3H)-one] | < 0.4 | < 0.05
Cc1cc(-c2nc(CC(C)C)[nH]c(=O)c2-c2ccc(Cl)cc2F)ccn1 [Compound 3, 5-(4-chloro-2-fluorophenyl)-2-isobutyl-6-(2-methylpyridin-4-yl)pyrimidin-4(3H)-one] | < 0.4 | 0.05 to 0.1
CNc1nc(-c2ccncc2)c(-c2ccc(Cl)cc2)c(=O)n1C [Compound 1, 5-(4-chlorophenyl)-3-methyl-2-(methylamino)-6-(pyridin-4-yl)pyrimidin-4(3H)-one] | 0.4 to 0.8 | < 0.05

Source: patent US12371414B2, “Methods of treating neurological disorders” (NEUMORA THERAPEUTICS, INC., priority 2022, dated 2025)
